Results reported in patent US5481013A, “Carboxylic acid derivatives” (Ciba-Geigy Corporation, priority 1992, dated 1996).

How the values were obtained:
Assay type in all cases: in vivo
[1] = tested on: Heliothis virescens caterpillars; test: Activity against Heliothis virescens caterpillars; conditions: 144 h, 400 ppm spray on young soybean plants, first larval stage, evaluated after 6 days, read-out: percentage reduction in population or in feeding damage (% activity)
Protocol: (§1) Young soybean plants are sprayed with a spray mixture prepared with an aqueous emulsion and comprising 400 ppm of the active ingredient. After the spray coating has dried on, the soybean plants are populated with 10 Heliothis virescens in the first larval stage and placed into a plastic container. The test is evaluated after 6 days. The percentage reduction in population, or the percentage reduction in feeding damage (% activity), is determined by comparing the number of dead caterpillars and the feeding damage on the treated plants with those on the untreated plants.

Nephotettix cincticeps = test: Activity against Nephotettix cincticeps (spray on rice plants); conditions: 504 h, 400 ppm spray on rice plants, larvae in stages 2 and 3, evaluated 21 days later, read-out: percentage reduction in population (% activity)
Protocol: Rice plants are treated with a spray mixture prepared with an aqueous emulsion and comprising 400 ppm of the active ingredient. After the spray coating has dried on, the rice plants are populated with leaf hopper larvae in stages 2 and 3. The test is evaluated 21 days later. The percentage reduction in population (% activity) is determined by comparing the number of surviving leaf hoppers on the treated plants with those on the untreated plants.

Aphis craccivora = test: Activity against Aphis craccivora; conditions: 400 ppm spray on pea seedlings, 20° C., evaluated after 3 and 6 days, read-out: percentage reduction in population (% activity)
Protocol: Pea seedlings are infected with Aphis craccivora, subsequently sprayed with a spray mixture comprising 400 ppm of the active ingredient, and incubated at 20° C. The test is evaluated after 3 and 6 days. The percentage reduction in population (% activity) is determined by comparing the number of dead aphids on the treated plants with those on the untreated plants.

Nilaparvata lugens [2] = test: Activity against Nilaparvata lugens (spray on rice plants); conditions: 504 h, 400 ppm spray on rice plants, larvae in stages 2 and 3, evaluated after 21 days, read-out: percentage reduction in population (% activity)
Protocol: Rice plants are treated with a spray mixture prepared with an aqueous emulsion and comprising 400 ppm of the active ingredient. After the spray coating has dried on, the rice plants are populated with plant hopper larvae in stages 2 and 3. The test is evaluated after 21 days. The percentage reduction in population (% activity) is determined by comparing the number of surviving plant hoppers on the treated plants with the number of plant hoppers on the untreated plants. […] An activity of over 80% is shown, in particular, by compound Nos. 1.01, 2.01 to 2.03, 2.07, 2.08, 2.10 to 2.16, 2.20, 2.22, 2.23, 2.26, 3.01, 4.01 to 4.06, 4.20, 5.01 to 5.06, 5.08, 5.10 to 5.12, 5.15, 5.16 and 5.20 to 5.25.

[3] = tested on: Panonychus ulmi (OP- and carb.- resistant); test: Activity against Panonychus ulmi (OP- and carb.- resistant); conditions: 336 h, 400 ppm spray on apple seedlings, evaluated after 14 days, read-out: percentage reduction in population (% activity)
Protocol: Apple seedlings are populated with adult females of Panonychus ulmi. After seven days, the infested plants are sprayed to drip point with an aqueous emulsion comprising 400 ppm of the test compound and grown in the greenhouse. The test is evaluated after 14 days. The percentage reduction in population (% activity) is determined by comparing the number of dead spider mites on the treated plants with those on the untreated plants. […] An activity of over 80% is shown, in particular, by compound Nos. 1.01, 2.01, 2.07, 2.08, 2.10, 2.12 to 2.16, 2.22, 2.23, 2.26, 3.01, 4.01, 4.02, 4.06, 5.01 to 5.03, 5.05, 5.06, 5.08, 5.10, 5.11, 5.15, 5.16 and 5.20 to 5.25.

adult Anthonomus grandis = test: Activity against adult Anthonomus grandis; conditions: 72 h, 400 ppm spray on young cotton plants, adults, evaluated after 3 days, read-out: percentage reduction in population or in feeding damage (% activity)
Protocol: as §1, with “cotton” for “soybean”, “adult Anthonomus grandis” for “Heliothis virescens in the first larval stage”, “3” for “6”, “beetles” for “caterpillars”

Nilaparvata lugens [4] = test: Systemic activity against Nilaparvata lugens; conditions: 144 h, pots with rice plants in 400 ppm aqueous emulsion solution, larvae in stages 2 and 3, evaluated 6 days later, read-out: percentage reduction in population (% activity)
Protocol: Pots containing rice plants are placed into an aqueous emulsion solution comprising 400 ppm of the active ingredient. The rice plants are subsequently populated with larvae in stages 2 and 3. The test is evaluated 6 days later. The percentage reduction in population (% activity) is determined by comparing the numbers of plant hoppers on the treated plants with those on the untreated plants.

Bemisia tabaci = test: Activity against Bemisia tabaci; conditions: 336 h, 400 ppm spray on dwarf bean plants with nymphs, evaluated 14 days after application, read-out: activity (hatching percentages vs untreated control)
Protocol: Dwarf bean plants are placed into gauze cages and populated with adult Bemisia tabaci specimens (white fly). After oviposition has taken place, all adults are removed and, 10 days later, the plants with the nymphs located thereon are treated with a spray mixture of the active ingredients to be tested (concentration 400 ppm), which has been prepared with an aqueous emulsion. The test is evaluated for hatching percentages 14 days after the active ingredient has been applied by comparison with the untreated control batches. […] An activity of over 80% is shown, in particular, by compound Nos. 1.01, 2.01 to 2.08, 2.10 to 2.16, 2.22, 2.23, 3.01, 4.01, 4.02, 4.05, 4.06, 5.02, 5.03, 5.06 to 5.08, 5.10, 5.11, 5.20, 5.21 and 6.09.

[5] = tested on: Crocidolomia binotalis caterpillars; test: Activity against Crocidolomia binotalis caterpillars; conditions: Brassica oleracea, 72 h; 400 ppm spray on young cabbage plants, third larval stage, evaluated after 3 days; read-out: percentage reduction in population or in feeding damage (% activity)
Protocol: as §1, with “cabbage” for “soybean”, “infested” for “populated”, “Crocidolomia binotalis” for “Heliothis virescens”, “third” for “first”, “3” for “6”

O=C(CC=C(F)F)OCCOc1ccc(Oc2ccccc2)cc1 [Compound 1.01, 2-(4-phenoxyphenoxy)ethyl-4,4-difluorobut-3-enoate]
> 80%: activity at 400 ppm [1] | activity at 400 ppm (Nephotettix cincticeps) | activity at 400 ppm (Aphis craccivora) | activity at 400 ppm (Nilaparvata lugens [2]) | activity at 400 ppm [3] | activity at 400 ppm (adult Anthonomus grandis) | activity at 400 ppm (Nilaparvata lugens [4]) | pest or weed control at 400 ppm (Bemisia tabaci) | activity at 400 ppm [5]

O=C(CCCCCC=C(F)F)OCCOc1ccc(Oc2ccccc2)cc1 [Compound 3.01]
> 80%: activity at 400 ppm [1] | activity at 400 ppm (Nephotettix cincticeps) | activity at 400 ppm (Aphis craccivora) | activity at 400 ppm (Nilaparvata lugens [2]) | activity at 400 ppm [3] | activity at 400 ppm (adult Anthonomus grandis) | activity at 400 ppm (Nilaparvata lugens [4]) | pest or weed control at 400 ppm (Bemisia tabaci) | activity at 400 ppm [5]
